# Results taken from patent publication US20260138976A1 (Hoffmann-La Roche Inc., priority 2022, published 2026).
# What was measured:
# [1] = test system: primary human T-cells; assay: Proliferation assay (5 days, CellTiter-Glo, CD3-stimulated T-cells); type: cell-based; settings: for Emax proliferation (% activation): CD3 condition, normalised to DMSO (neutral) and 20 μM reference compound A1 = 100%; for EC50: Homo sapiens, T-cell, 120 h, CD3-stimulated primary human T-cells, 5 days, CellTiter-Glo, fitted sigmoidal curve, read-out: Tcell Proliferation CD3 EC50
# Method in brief: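 Proliferation read-out: ATP luminescence (CellTiter-Glo 2.0) at day 5 in expanded primary human T-cells on CD3 antibody-coated plates, with PBS-only plates as a counter screen. Compounds in 5–6 pt series (factor 3.333, top 20 or 10 μM final). Values are normalized to DMSO (neutral) and 20 μM reference A1 (100%), from sigmoidal fits.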
# [2] = target: T1, DGK ζ kinase (Homo sapiens, UniProt Q13574); assay: DGKzeta kinase ADP Glo assay run by Reaction Biology Corp.; type: biochemical; settings: 2 nM kinase, 50 µM ATP, 500 μM DLG, 10-dose duplicate
# T1 construct: purchased Reaction Biology Corp. (contract assay service)
# T1 sequence (Q13574 whole entry): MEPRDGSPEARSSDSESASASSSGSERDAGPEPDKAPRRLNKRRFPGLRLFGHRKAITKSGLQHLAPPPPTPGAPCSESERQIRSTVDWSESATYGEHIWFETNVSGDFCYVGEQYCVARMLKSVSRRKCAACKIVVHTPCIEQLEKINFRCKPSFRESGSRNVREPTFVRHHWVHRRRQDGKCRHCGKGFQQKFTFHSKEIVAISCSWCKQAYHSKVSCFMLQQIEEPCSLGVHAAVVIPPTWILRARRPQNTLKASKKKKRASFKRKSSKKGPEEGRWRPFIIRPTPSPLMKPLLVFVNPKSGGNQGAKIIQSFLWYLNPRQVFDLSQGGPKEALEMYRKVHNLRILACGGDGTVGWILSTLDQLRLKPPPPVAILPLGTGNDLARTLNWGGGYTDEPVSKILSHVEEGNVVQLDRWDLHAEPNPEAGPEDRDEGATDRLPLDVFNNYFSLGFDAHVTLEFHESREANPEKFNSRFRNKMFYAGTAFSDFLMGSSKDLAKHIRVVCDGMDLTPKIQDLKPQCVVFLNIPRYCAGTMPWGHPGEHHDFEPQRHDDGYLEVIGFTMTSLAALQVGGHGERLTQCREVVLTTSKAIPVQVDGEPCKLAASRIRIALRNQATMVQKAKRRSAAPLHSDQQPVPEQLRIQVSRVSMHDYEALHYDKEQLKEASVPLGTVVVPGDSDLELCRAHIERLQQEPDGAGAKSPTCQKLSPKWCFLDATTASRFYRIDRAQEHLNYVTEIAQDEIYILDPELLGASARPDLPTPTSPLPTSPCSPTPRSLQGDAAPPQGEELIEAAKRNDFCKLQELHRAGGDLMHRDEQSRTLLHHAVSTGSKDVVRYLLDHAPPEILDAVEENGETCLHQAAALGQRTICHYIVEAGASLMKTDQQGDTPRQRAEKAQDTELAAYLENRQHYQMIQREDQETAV
# Procedure: DGK α and ζ kinases use ATP to phosphorylate the substrate 1,2-dilauroyl-sn-glycerol (DLG). ATP is converted to ADP as a result of this enzymatic reaction.
# After the kinase reaction, an ATP-depletion reagent is added to terminate the kinase reaction and deplete any remaining ATP, leaving only ADP. Second, a detection reagent is added to simultaneously convert ADP to ATP and allow the newly synthesized ATP to be converted to light using a coupled luciferase/luciferin reaction.
# DGK α and ζ kinase ADP Glo assays were ran by Reaction Biology Corp., 1 Great Valley Parkway, Suite 2, Malvern, 19355, PA, USA. Information provided by the service provider are the following: DGK α and ζ kinases were used at 2 nM final concentration. Reactions were carried out at 50 µM ATP. 500 μM of the substrate DLG (Dilauroyl-sn-glycerol) was used.
SMILES,Emax proliferation (% activation) [1] [% activation],EC50 [1] [nM],IC50 [2] [nM]
"Cc1noc(-c2ccc(CN3C(=O)[C@@H](N)CS(=O)(=O)c4ccc(-c5nnc(C(C)(C)C)o5)cc43)cc2)n1 [Example 20, (3R)-3-amino-7-(5-tert-butyl-1,3,4-oxadiazol-2-yl)-5-[[4-(3-methyl-1,2,4-oxadiazol-5-yl)phenyl]methyl]-1,1-dioxo-2,3-dihydro-1λ^6,5-benzothiazepin-4-one]",82,2380,439
CC(C)(C#N)c1nnc(-c2ccc3c(c2)N(Cc2ccc(-c4ccc(C(F)(F)F)cn4)cc2)C(=O)[C@@H](N)CS3(=O)=O)o1 [Example 47],159,459,71.3
"C[C@@](N)(c1nnc(-c2ccc3c(c2)N(Cc2ccc(-c4noc(C(F)(F)F)n4)cc2)C(=O)[C@@H](N)CS3(=O)=O)o1)C(F)(F)F [Example 52, (3R)-3-amino-7-[5-[(1R)-1-amino-2,2,2-trifluoro-1-methyl-ethyl]-1,3,4-oxadiazol-2-yl]-1,1-dioxo-5-[[4-[5-(trifluoromethyl)-1,2,4-oxadiazol-3-yl]phenyl]methyl]-2,3-dihydro-1λ^6,5-benzothiazepin-4-one]",126,196,101
"C[C@](N)(c1nnc(-c2ccc3c(c2)N(Cc2ccc(-c4noc(C(F)(F)F)n4)cc2)C(=O)[C@@H](N)CS3(=O)=O)o1)C(F)(F)F [Example 53, (3R)-3-amino-7-[5-[(1S)-1-amino-2,2,2-trifluoro-1-methyl-ethyl]-1,3,4-oxadiazol-2-yl]-1,1-dioxo-5-[[4-[5-(trifluoromethyl)-1,2,4-oxadiazol-3-yl]phenyl]methyl]-2,3-dihydro-1λ^6,5-benzothiazepin-4-one]",120,2220,92.8
"N[C@H]1CS(=O)(=O)c2ccc(-c3nnc(N4CCOC(F)(F)C4)o3)cc2N(Cc2ccc(-c3noc(C(F)(F)F)n3)cc2)C1=O [Example 78, (3R)-3-amino-7-[5-(2,2-difluoromorpholin-4-yl)-1,3,4-oxadiazol-2-yl]-1,1-dioxo-5-[[4-[5-(trifluoromethyl)-1,2,4-oxadiazol-3-yl]phenyl]methyl]-2,3-dihydro-1λ^6,5-benzothiazepin-4-one]",150,1090,25.4
"COc1ccc(-c2ccc(CN3C(=O)[C@@H](N)CS(=O)(=O)c4ccc(-c5nnc(N(C)CC(F)(F)F)o5)cc43)cc2)cc1 [Example 81, (3R)-3-amino-5-[[4-(4-methoxyphenyl)phenyl]methyl]-7-[5-[methyl(2,2,2-trifluoroethyl)amino]-1,3,4-oxadiazol-2-yl]-1,1-dioxo-2,3-dihydro-1λ^6,5-benzothiazepin-4-one]",138,728,53.5
CC(C)(C#N)c1nnc(-c2ccc3c(c2)N(Cc2ccc(-c4ccc(OC(F)(F)F)cn4)cc2)C(=O)[C@@H](N)CS3(=O)=O)o1 [Example 124],153,114,56.7
"COCCN1CC(c2nnc(-c3ccc4c(c3)N(Cc3ccc(-c5ccc(OC)cc5)cc3)C(=O)[C@@H](N)CS4(=O)=O)o2)CC(F)(F)C1 (stereo partly drawn) [Example 183, (3R)-3-amino-7-[5-[5,5-difluoro-1-(2-methoxyethyl)-3-piperidyl]-1,3,4-oxadiazol-2-yl]-5-[[4-(4-methoxyphenyl)phenyl]methyl]-1,1-dioxo-2,3-dihydro-1λ^6,5-benzothiazepin-4-one]",156,1680,
